The test system of experiment [1] is HIV (HTLV-IIIB). In words: Inhibitory activity against HIV infection and proliferation in MT-4 cells (indirect fluorescence antibody method). Type of experiment: cell-based, human immunodeficiency virus (HIV). The note with it: three days, positive control 26.0%. As to the method:
(Method) Cultured supernatant of MOLT-4/HTLV-IIIB cells, a HTLV-IIIB persistent infected strain of HIV, was used as a viral solution. The supernatant was kept at -80° C. Human T cell line MT-4 was used for the test. MT-4 was subcultured in RPMI 1640 medium containing 10% fetal calf serum (FCS). Sample, LF derived peptide, was dissolved in RPMI 1640 medium and one ml of the diluted solution at various concentrations was added to the cells. The inoculated MT-4 test sample was incubated for 60 minutes and infected with HIV at a concentration of moi […]=0.01 and one ml of the cell solution adjusted at a cell density of 3×10^5 cells/ml was added. The cells were cultured for three days : and HIV infected cells were determined with an indirect fluorescence antibody method.
HIV infected cells were determined by the indirect fluorescence antibody method using HIV infected patient serum as a primary antibody. […] HIV infected MT-4 cells cultured without addition of the sample was used as a positive control and cells without addition of viral solution was cultured to make a negative control group.

Experiment [2] relates to influenza virus A/PR/8/34. The note with it: 100 μl of one mg/ml solution in allantoic cavity three hours before virus; average of five eggs.
The subject of experiment [3] is Human CMV (Tanaka strain). As to the kind of experiment: Inhibitory activity against human CMV infection and proliferation in HELF cells (fluorescence staining). The class given is cell-based, Human cytomegalo virus. The note with it: 24 hrs., concentration not given. On the procedure: (Method) LF derived peptide was dissolved in 2% serum added MEM medium to give five mg/ml solution, filtered and sterilized to make a stock solution. The stock solution was diluted with 2% serum added MEM medium on use. Samples containing human embryo lung fibroblast cells (HELF cells) were suspended in 2% serum added MEM medium and incubated for 10 minutes. The cells were collected by centrifugation, washed twice with 2% serum added MEM medium and suspended in 2% serum added MEM medium. Human cytomegalo virus [Human CMV (Tanaka strain)] was added, incubated for 24 hrs., fluorescence stained with human CMV positive serum and the adsorption rate of human CMV to the cells was determined.
The results are judged from the numbers of fluorescent stained cells per one cover slip.

Experiment [4] has as its system mouse cytomegalo virus (mouse CMV). As to the kind of experiment: In vivo inhibitory activity against mouse CMV infection (survival of mice). The note with it: after 10 days. As to the method:
(Method) Male Balbc/AJcl mice, 4-week-old (10 in one group) were used. The sample was dissolved in phosphate buffer saline solution (PBS) and intraperitoneally administered to mice.

These results are taken from patent US5565425A, “Viral infection and proliferation inhibitors” (Snow Brand Milk Products Co., Ltd, priority 1993, dated 1996).

Bridge positions count the residues as written; N and C are the ends. Peptide text beside a SMILES is read from it.

Consider `CC[C@H](C)[C@@H]1NC(=O)[C@H](CO)NC(=O)[C@@H]2CCCN2C(=O)[C@H](C)NC(=O)CNC(=O)[C@H](CC(C)C)NC(=O)[C@H](CCCCN)NC(=O)[C@H](CCCCN)NC(=O)[C@H](CCSC)NC(=O)[C@H](CCCNC(=N)N)NC(=O)[C@H](Cc2c[nH]c3ccccc23)NC(=O)[C@H](CCC(N)=O)NC(=O)[C@H](Cc2c[nH]c3ccccc23)NC(=O)[C@H](CCCNC(=N)N)NC(=O)[C@H](CCCNC(=N)N)NC(=O)[C@@H](NC(C)=O)CSSC[C@@H](C(N)=O)NC(=O)[C@H]([C@@H](C)O)NC1=O` [Ac-bovine LF (19-36)-NH2, N-acetyl-bovine LF (19-36)-amide] (Ac-CRRWQWRMKKLGAPSITC-NH2; disulfide 1-18), for which the “ratio of stained (HIV infected) cells” value in experiment [1] (sample 63 μg/ml) was 17%; in experiment [1] (sample 125 μg/ml) it was 8.8%; in experiment [1] (sample 250 μg/ml) it was 6.1%; in experiment [1] (sample 500 μg/ml), 5.0%; in experiment [1] (sample 1,000 μg/ml), 3.6%. Besides, the “Inhibitory rate of infection and proliferation of influenza virus” value (from here on “Inhibitory rate … of influenza virus”) in experiment [2] was determined as 87.5%. Further, the “Inhibitory rate of human CMV infection” value in experiment [3] is given as 96.5%.

On to `CSCC[C@@H]1NC(=O)[C@H](CC(N)=O)NC(=O)[C@H](CCCNC(=N)N)NC(=O)[C@H](CCC(N)=O)NC(=O)[C@H](Cc2c[nH]c3ccccc23)NC(=O)[C@H](CCC(N)=O)NC(=O)[C@H](Cc2ccccc2)NC(=O)[C@@H](NC(C)=O)CSSC[C@@H](C(N)=O)NC(=O)[C@H](CO)NC(=O)[C@H](C(C)C)NC(=O)[C@@H]2CCCN2C(=O)[C@@H]2CCCN2C(=O)CNC(=O)[C@H](CCCNC(=N)N)NC(=O)[C@H](C(C)C)NC(=O)[C@H](CCCCN)NC(=O)[C@H](CCCNC(=N)N)NC1=O` [Ac-human LF (20-37)-NH2, N-acetyl-human LF (20-37)-amide] (Ac-CFQWQRNMRKVRGPPVSC-NH2; disulfide 1-18), for which the “ratio of stained (HIV infected) cells” value is on record as 18% in experiment [1] (sample 63 μg/ml); 9.8% in experiment [1] (sample 125 μg/ml); 7.7% in experiment [1] (sample 250 μg/ml); 4.5% in experiment [1] (sample 500 μg/ml); 3.9% in experiment [1] (sample 1,000 μg/ml). Further, the “Inhibitory rate … of influenza virus” value in experiment [2] came to 93.7%. Further, in experiment [3], the “Inhibitory rate of human CMV infection” value turned out to be 96.1%.

Regarding `CC[C@H](C)[C@@H]1NC(=O)[C@H](CO)NC(=O)[C@@H]2CCCN2C(=O)[C@H](C)NC(=O)CNC(=O)[C@H](CC(C)C)NC(=O)[C@H](CCCCN)NC(=O)[C@H](CCCCN)NC(=O)[C@H](CCSC)NC(=O)[C@H](CCCNC(=N)N)NC(=O)[C@H](Cc2c[nH]c3ccccc23)NC(=O)[C@H](CCC(N)=O)NC(=O)[C@H](Cc2c[nH]c3ccccc23)NC(=O)[C@H](CCCNC(=N)N)NC(=O)[C@H](CCCNC(=N)N)NC(=O)[C@@H](NC(=O)[C@H](CCCCN)NC(=O)[C@@H](N)Cc2ccccc2)CSSC[C@@H](C(=O)N[C@H](C(=O)N[C@@H](CCCNC(=N)N)C(=O)N[C@@H](CCCNC(=N)N)C(=O)N[C@@H](C)C(=O)N[C@@H](Cc2ccccc2)C(=O)O)C(C)C)NC(=O)[C@H]([C@@H](C)O)NC1=O` [Bovine LF (17-41)], the “ratio of stained (HIV infected) cells” value in experiment [1] (sample 63 μg/ml) amounted to 17%; in experiment [1] (sample 125 μg/ml), 7.9%; in experiment [1] (sample 250 μg/ml), 5.9%; in experiment [1] (sample 500 μg/ml), 2.7%; in experiment [1] (sample 1,000 μg/ml), 1.0%. Further, the “Inhibitory rate … of influenza virus” value in experiment [2] was 93.7%. In experiment [3], the “Inhibitory rate of human CMV infection” value worked out at 95.7%. In addition, the Survival rate in experiment [4] (0.02 g/kg of body weight i.p. 24 hrs. before mouse CMV) was 30%; in experiment [4] (0.05 g/kg of body weight i.p. 24 hrs. before mouse CMV), 60%; in experiment [4] (0.10 g/kg of body weight i.p. 24 hrs. before mouse CMV), 100%; in experiment [4] (0.50 g/kg of body weight i.p. 24 hrs. before mouse CMV), 100%.

In the case of `CC[C@H](C)[C@H](NC(=O)[C@H](CO)NC(=O)[C@@H]1CCCN1C(=O)[C@H](C)NC(=O)CNC(=O)[C@H](CC(C)C)NC(=O)[C@H](CCCCN)NC(=O)[C@H](CCCCN)NC(=O)[C@H](CCSC)NC(=O)[C@H](CCCNC(=N)N)NC(=O)[C@H](Cc1c[nH]c2ccccc12)NC(=O)[C@H](CCC(N)=O)NC(=O)[C@H](Cc1c[nH]c2ccccc12)NC(=O)[C@H](CCCNC(=N)N)NC(=O)[C@H](CCCNC(=N)N)NC(=O)[C@H](CS)NC(=O)[C@H](CCCCN)NC(=O)[C@@H](N)Cc1ccccc1)C(=O)N[C@H](C(=O)N[C@@H](CS)C(=O)N[C@H](C(=O)N[C@@H](CCCNC(=N)N)C(=O)N[C@@H](CCCNC(=N)N)C(=O)N[C@@H](C)C(=O)N[C@@H](Cc1ccccc1)C(=O)O)C(C)C)[C@@H](C)O` [[19 CysSH, 36 CysSH] Bovine LF (17-41)], the “ratio of stained (HIV infected) cells” value amounted to 19% in experiment [1] (sample 63 μg/ml); 8.3% in experiment [1] (sample 125 μg/ml); 6.4% in experiment [1] (sample 250 μg/ml); 2.9% in experiment [1] (sample 500 μg/ml); 1.2% in experiment [1] (sample 1,000 μg/ml). Further, in experiment [2], the “Inhibitory rate … of influenza virus” value was 92.0%. The “Inhibitory rate of human CMV infection” value in experiment [3] was 100.0%.

With `CC[C@H](C)[C@H](NC(=O)[C@H](CS)NC(=O)[C@H](CO)NC(=O)[C@@H](NC(=O)[C@@H]1CCCN1C(=O)[C@@H]1CCCN1C(=O)CNC(=O)[C@H](CCCNC(=N)N)NC(=O)[C@@H](NC(=O)[C@H](CCCCN)NC(=O)[C@H](CCCNC(=N)N)NC(=O)[C@H](CCSC)NC(=O)[C@H](CC(N)=O)NC(=O)[C@H](CCCNC(=N)N)NC(=O)[C@H](CCC(N)=O)NC(=O)[C@H](Cc1c[nH]c2ccccc12)NC(=O)[C@H](CCC(N)=O)NC(=O)[C@H](Cc1ccccc1)NC(=O)[C@H](CS)NC(=O)[C@H](CCCCN)NC(=O)[C@@H](N)[C@@H](C)O)C(C)C)C(C)C)C(=O)N[C@@H](CCCCN)C(=O)N[C@@H](CCCNC(=N)N)C(=O)N[C@@H](CC(=O)O)C(=O)N[C@@H](CO)C(=O)O` [[20CysSH, 37CysSH] Human LF (18-42)] (H-TKCFQWQRNMRKVRGPPVSCIKRDS-OH), the “ratio of stained (HIV infected) cells” value in experiment [1] (sample 63 μg/ml) is recorded as 17%; in experiment [1] (sample 125 μg/ml), 8.5%; in experiment [1] (sample 250 μg/ml), 6.2%; in experiment [1] (sample 500 μg/ml), 3.1%; in experiment [1] (sample 1,000 μg/ml), 1.4%. In addition, the “Inhibitory rate … of influenza virus” value in experiment [2] stood at 96.0%. For the same molecule, the “Inhibitory rate of human CMV infection” value in experiment [3] amounted to 100.0%.

Take “Bovine LF: bovine lactoferrin, an iron-binding protein secreted in milk (CRRWQWRMKKLGAPSITC)”: the “ratio of stained (HIV infected) cells” value in experiment [1] (sample 63 μg/ml) amounted to 18%; in experiment [1] (sample 125 μg/ml), 8.0%; in experiment [1] (sample 250 μg/ml), 6.2%; in experiment [1] (sample 500 μg/ml) it was 4.8%; in experiment [1] (sample 1,000 μg/ml) it was 3.6%. Further, the “Inhibitory rate … of influenza virus” value in experiment [2] was determined as 87.5%. In addition, the “Inhibitory rate of human CMV infection” value in experiment [3] is recorded as 95.7%.
